{"source": "patent US20260248127A1", "about": "“IMPROVED PESTICIDAL COMPOSITIONS AND PEST CONTROL METHODS” (priority 2022, published 2026)", "key": {"[1]": {"test_system": "Aedes aegypti LVP (SP-susceptible) strain L3 larvae", "test": "Larval mortality-time assay, LVP strain", "format": "in vivo", "details": "table row says LC50 LVP dose, text LC90 dose", "description": "Results represent n=3 biological replicates. Lethal time (LT50) of post topical exposure to a Lethal Concentration (LC90) dose is shown in comparison to SP and the technical grade synthetic pyrethroid, Deltamethrin."}, "[2]": {"test_system": "Aedes aegypti LVP (SP-susceptible) strain L3 larvae", "details": "data from a previous study, cited from earlier work"}, "[3]": {"test_system": "Aedes aegypti PRS (SP-resistant) strain L3 larvae", "details": "data from a previous study, cited from earlier work"}, "[4]": {"test_system": "Musca domestica CAR21 (insecticide susceptible) strain", "test": "Topical synergist 24-hour mortality assay, CAR21 house flies", "format": "in vivo", "details": "for % Dead / Alive / Dead: CAR21, topical doses; for % Dead: 24-hour mortality; for maximum sublethal dose: for both strains (CAR21, KS17); for Alive / Dead: number of flies, pooled of 4 replicates, 24-hour"}, "[5]": {"test_system": "Musca domestica KS17 (insecticide resistant) strain", "test": "Topical synergist 24-hour mortality assay, KS17 house flies", "format": "in vivo", "details": "topical doses; for % Dead: 24-hour mortality; for Alive / Dead: number of flies, pooled of 4 replicates, 24-hour"}, "[6]": {"test_system": "Aedes aegypti PRS (SP-resistant) strain 3-5 day old adults", "test": "Adult dose-mortality assay, PRS strain", "format": "in vivo", "details": "for LC50: Aedes aegypti, PRS adults"}, "[7]": {"test_system": "Aedes aegypti PRS (SP-resistant) strain L3 larvae", "test": "Qcide combinations larval dose-mortality assay, PRS strain", "format": "in vivo", "procedure": "(§1) Results represent n=3 biological replicates. […] The Synergistic Ratio (SR) and P-value are shown. Mosquito mortality is shown for A and B: LVP at 24 and 48 hours. […] Mosquito mortality is shown for A and B: PRS at 24 and 48 hours.\n(§2) Results represent n=3 biological replicates. […] The Synergistic Ratio (SR) and P-value are shown."}, "[8]": {"test_system": "Aedes aegypti LVP (SP-susceptible) strain L3 larvae", "test": "Qcide combinations larval dose-mortality assay, LVP strain", "format": "in vivo", "procedure": "as §1, §2"}, "[9]": {"test_system": "Aedes aegypti LVP (SP-susceptible) strain L3 larvae", "test": "Larval dose-mortality (dose response) assay, LVP strain", "format": "in vivo", "details": "for LC50: Aedes aegypti, read-out: Lethal Concentration (LC50)", "description": "(§3) Results represent n=3 biological replicates."}, "[10]": {"test_system": "Aedes aegypti PRS (SP-resistant) strain L3 larvae", "test": "Larval dose-mortality (dose response) assay, PRS strain", "format": "in vivo", "details": "for LC50: Aedes aegypti, PRS L3 larvae, read-out: Lethal Concentration (LC50)", "description": "as §3"}, "[11]": {"test_system": "Aedes aegypti LVP (SP-susceptible) strain 3-5 day old adults", "test": "Adult dose-mortality assay, LVP strain", "format": "in vivo", "details": "for LC50: Aedes aegypti, read-out: Lethal Dose (LC50)"}, "[12]": {"details": "24 h, Permethrin alone (Table 4)"}, "[13]": {"details": "24 h, Permethrin alone (Table 5)"}, "[14]": {"details": "48 h, Permethrin alone (Table 4)"}, "[15]": {"details": "48 h, Permethrin alone (Table 5)"}}, "note": "Values joined by “and” are separate entries in the source; they are usually repeats but may differ in a detail not shown here. Identical values can stand only once. Like-named read-outs stand apart in the source and are kept apart here."}
{"molecule": "CC1(C)[C@H](C(=O)O[C@H](C#N)c2cccc(Oc3ccccc3)c2)[C@@H]1C=C(Br)Br", "note": "[Deltamethrin]", "values": [{"measurement": "Lethal Time (LT50)", "setting": "[1]", "value": "5.6 h and 5.5 h"}]}
{"molecule": "CC(C)C(=O)C1C(=O)C(C)(C)C(=O)C(C)(C)C1=O", "note": "[Flavesone, flavesone]", "values": [{"measurement": "Lethal Concentration (LC50)", "setting": "[2]; 24 hours, listed as flavesone", "value": 41, "unit": "µg/mL"}, {"measurement": "Lethal Concentration (LC50)", "setting": "[2]; 24 hours", "value": 40.9, "unit": "µg/mL"}, {"measurement": "Lethal Concentration (LC50)", "setting": "[2]; 48 hours", "value": 40.5, "unit": "µg/mL"}, {"measurement": "Lethal Concentration (LC50)", "setting": "[2]; 72 hours", "value": 39.7, "unit": "µg/mL"}, {"measurement": "Lethal Concentration (LC50)", "setting": "[3]; 24 hours, listed as flavesone", "value": 39, "unit": "µg/mL"}, {"measurement": "Lethal Concentration (LC50)", "setting": "[3]; 24 hours", "value": 38.7, "unit": "µg/mL"}, {"measurement": "Lethal Concentration (LC50)", "setting": "[3]; 48 hours", "value": 37.1, "unit": "µg/mL"}, {"measurement": "Lethal Concentration (LC50)", "setting": "[3]; 72 hours", "value": 37.1, "unit": "µg/mL"}, {"measurement": "% Dead", "setting": "[4]", "value": 0.0, "unit": "%"}, {"measurement": "maximum sublethal dose", "setting": "[4]; topical", "value": 0.3, "unit": "% v/v"}, {"measurement": "Alive", "setting": "[4]", "value": 80}, {"measurement": "Dead", "setting": "[4]", "value": 0}]}
{"molecule": "CCCCOCCOCCOCc1cc2c(cc1CCC)OCO2", "note": "[PBO, piperonyl butoxide]", "values": [{"measurement": "% Dead", "setting": "[5]", "value": 3.9, "unit": "%"}, {"measurement": "Alive", "setting": "[5]", "value": 74}, {"measurement": "Dead", "setting": "[5]", "value": 3}, {"measurement": "% Dead", "setting": "[4]", "value": 0.0, "unit": "%"}, {"measurement": "maximum sublethal dose", "setting": "[4]; topical", "value": 10, "unit": "μg/fly"}, {"measurement": "Alive", "setting": "[4]", "value": 80}, {"measurement": "Dead", "setting": "[4]", "value": 0}]}
{"molecule": "CC1(C)C(C=C(Cl)Cl)C1C(=O)OCc1cccc(Oc2ccccc2)c1", "note": "(stereo not drawn) [Permethrin, permethrin]", "values": [{"measurement": "% Dead", "setting": "[5]", "value": 3.8, "unit": "%"}, {"measurement": "Alive", "setting": "[5]", "value": 77}, {"measurement": "Dead", "setting": "[5]", "value": 3}, {"measurement": "LC50", "setting": "[6]; 24 hours post exposure, read-out: Lethal Dose (LC50)", "value": 130, "unit": "µg/mL"}, {"measurement": "LC50", "setting": "[6]; 24 hours, read-out: LC50", "value": 130, "unit": "µg/mL"}, {"measurement": "LC50", "setting": "[6]; 48 hours post exposure, read-out: Lethal Dose (LC50)", "value": 120, "unit": "µg/mL"}, {"measurement": "resistance of PRS strain adults as compared to LVP", "setting": "[6]; adults, under assay conditions", "value": "approximately 240 fold"}, {"measurement": "LC50", "setting": "[7]; [12]", "value": 2.1, "unit": "µg/mL"}, {"measurement": "LC50", "setting": "[7]; [13]", "value": 1.21, "unit": "µg/mL"}, {"measurement": "LC50", "setting": "[7]; [14]", "value": 1.3, "unit": "µg/mL"}, {"measurement": "LC50", "setting": "[7]; [15]", "value": 0.87, "unit": "µg/mL"}, {"measurement": "LC50", "setting": "[8]; [12]", "value": 0.0205, "unit": "µg/mL"}, {"measurement": "LC50", "setting": "[8]; [13]", "value": 0.0237, "unit": "µg/mL"}, {"measurement": "LC50", "setting": "[8]; [14]", "value": 0.0181, "unit": "µg/mL"}, {"measurement": "LC50", "setting": "[8]; [15]", "value": 0.0217, "unit": "µg/mL"}, {"measurement": "Lethal Concentration (LC50)", "setting": "[9]; 24 hours post exposure", "value": 0.0259, "unit": "µg/mL"}, {"measurement": "LC50", "setting": "[9]; 24 h, 24 hours post exposure", "value": 0.026, "unit": "µg/mL"}, {"measurement": "LC50", "setting": "[9]; 48 h, 48 hours post exposure", "value": 0.0252, "unit": "µg/mL"}, {"measurement": "LC50", "setting": "[9]; 72 h, 72 hours post exposure", "value": 0.0214, "unit": "µg/mL"}, {"measurement": "Lethal Time (LT50)", "setting": "[1]", "value": "5.5 h and 5.6 h"}, {"measurement": "LC50", "setting": "[10]; 24 hours post exposure", "value": 0.7, "unit": "µg/mL"}, {"measurement": "LC50", "setting": "[10]; 48 hours post exposure", "value": 0.6, "unit": "µg/mL"}, {"measurement": "LC50", "setting": "[10]; 72 hours post exposure", "value": 0.6, "unit": "µg/mL"}, {"measurement": "resistance of PRS strain larvae as compared to LVP strain", "setting": "[10]; L3 larvae, under assay conditions", "value": "approx. 25 fold"}, {"measurement": "% Dead", "setting": "[4]", "value": 7.5, "unit": "%"}, {"measurement": "LD50 dose", "setting": "[4]; CAR21 strain, topical", "value": 12, "unit": "ng/fly"}, {"measurement": "Alive", "setting": "[4]", "value": 74}, {"measurement": "Dead", "setting": "[4]", "value": 6}, {"measurement": "Lethal Dose (LC50)", "setting": "[11]; 24 hours post exposure", "value": 0.5429, "unit": "µg/mL"}, {"measurement": "LC50", "setting": "[11]; 24 h, 24 hours post exposure", "value": 0.543, "unit": "µg/mL"}, {"measurement": "LC50", "setting": "[11]; 48 h, 48 hours post exposure", "value": 0.505, "unit": "µg/mL"}]}
